According to publication PMC12386809, “Phenanthrene Monomers and Dimers from Juncus tenuis with Antiproliferative Activity and Synergistic Effect with Doxorubicin Against Human Colon Cancer Cell Lines” (International Journal of Molecular Sciences, 2025):
Where two headings read alike, the source gives them in different places.

Key:
[1] = system: COLO 320/MDR-LRP multidrug-resistant human colonic adenocarcinoma cells; test: MTT antiproliferative assay, COLO 320; format: cell-based; conditions: Homo sapiens, COLO 320 (multidrug-resistant), read-out: IC50 (µM) ± SD COLO 320
Description: (§1) The antiproliferative effects of the isolated phenanthrenes (compounds 1–19) were evaluated using human cancer cell lines, including doxorubicin-sensitive colonic adenocarcinoma COLO 205 and multidrug-resistant colonic adenocarcinoma COLO 320/MDR-LRP (which expresses P-glycoprotein [MDR1] and LRP), as well as non-cancerous human lung fibroblast CCD-19Lu cells. CCD-19Lu was chosen because it is a well-characterized, non-tumorigenic cell line commonly used to assess general cytotoxicity. Moreover, data from the literature support the use of lung fibroblast cell lines—including CCD-19Lu—as normal controls in studies involving colon cancer cells such as Colo 205 and Colo 320 [33]. The thiazolyl blue tetrazolium bromide (MTT) assay was employed to determine the concentration of each compound required to inhibit 50% of the cell viability (IC50), as summarized in Table 3.
(§2) The human colon adenocarcinoma cells—COLO 205 (CCL-222, doxorubicin-sensitive) and COLO 320/MDR-LRP (ATCC-CCL-220.1, multidrug-resistant, expressing P-gp)—were cultured in RPMI 1640 medium supplemented with 10% heat-inactivated fetal bovine serum, 2 mM of L-glutamine, 1 mM of sodium pyruvate, and 100 mM of HEPES. The non-cancerous human lung fibroblast cell line CCD-19Lu was maintained in Eagle’s Minimal Essential Medium (EMEM; containing 4.5 g/L of glucose) supplemented with a non-essential amino acid mixture, selected vitamins, and 10% heat-inactivated fetal bovine serum. All of the cell lines were detached using 0.25% trypsin and 0.02% EDTA for 5 min at 37 °C. The cell lines were obtained from LGC Promochem (Teddington, England).
(§3) Human colonic adenocarcinoma cell lines—doxorubicin-sensitive COLO 205 and multidrug-resistant COLO 320—as well as the non-cancerous human lung fibroblast cell line CCD-19Lu were used to evaluate the effects of the test compounds on cell proliferation. The assays were conducted in 96-well flat-bottomed microtiter plates. Stock solutions of the compounds were prepared in dimethyl sulfoxide (DMSO), with the final DMSO concentration kept below 1% in all samples. The compounds were diluted in 100 µL of the appropriate culture medium. Adherent cells were cultured in EMEM supplemented with 10% heat-inactivated fetal bovine serum and seeded into 96-well plates at a density of 6 × 10^3 cells per 100 µL per well. The cells were allowed to adhere for 24 h at 37 °C in a humidified incubator with 5% CO2. After incubation, the medium was removed and replaced with 100 µL of fresh medium. Serial dilutions of the compounds were prepared in separate plates and added to the cells, starting from a concentration of 100 µM with twofold serial dilutions (final concentration range: 100–0.19 µM). The cells were then incubated for 72 h at 37 °C. At the end of the incubation period, 20 µL of thiazolyl blue tetrazolium bromide (MTT) solution (5 mg/mL, Sigma) was added to each well. After 4 h of incubation at 37 °C, 100 µL of 10% sodium dodecyl sulfate (SDS) in 0.01 M HCl was added to solubilize the formazan crystals, and the plates were incubated overnight at 37 °C. Cell viability was assessed by measuring the optical density (OD) at 540/630 nm using a Multiscan EX ELISA reader (Thermo Labsystems, Cheshire, WA, USA).
(§4) The inhibitory concentration that reduced cell growth by 50% (IC50) was determined from the dose–response curves. The percent inhibition was calculated using the formula100 − ((OD_sample − OD_medium control)/(OD_cell control − OD_medium control)) × 100
(§5) Dose–response curves were generated by plotting the percent inhibition against the logarithm of the compound concentrations and fitted using Prism5 software (Version 6, GraphPad Software Inc., San Diego, CA, USA). The IC50 values were derived from four independent experiments conducted in parallel for each cell line and are reported as the mean values.

[2] = system: COLO 205 (doxorubicin-sensitive) human colonic adenocarcinoma cells; test: MTT antiproliferative assay, COLO 205; format: cell-based; conditions: read-out: IC50 (µM) ± SD COLO 205
Description: as §1, §2, §3, §4, §5

[3] = system: CCD-19Lu non-cancerous human lung fibroblast cells; test: MTT antiproliferative assay, CCD-19Lu; format: cell-based; conditions: 72 h, CCD-19Lu non-tumorigenic fibroblasts, read-out: IC50 (µM) ± SD CCD-19Lu
Description: as §1, §2, §3, §4, §5

[4] = system: multidrug-resistant COLO 320 cells; test: Drug combination assay with doxorubicin (Chou-Talalay, MTT); format: cell-based, human; conditions: for CI at ED50 (combination index): combination with doxorubicin, COLO 320, 72 h, Chou-Talalay; for Interaction: interaction with doxorubicin in COLO 320, class from CI
Description: One promising approach involves the discovery of new bioactive natural products. To explore this, a chemosensitivity assay was conducted to examine the in vitro interactions between the isolated compounds and the antineoplastic agent doxorubicin, a substrate of P-glycoprotein (P-gp). A combination chemotherapy model was applied using human COLO 320 colon carcinoma cells. The combination index (CI), calculated according to the Chou–Talalay method, was used to evaluate drug–drug interactions, classifying them as synergistic (CI < 1), additive (CI = 1), or antagonistic (CI > 1) (Table 4).
The multidrug-resistant COLO 320 cell line was used to perform the drug combination assay. Doxorubicin (2 mg/mL, Teva Pharmaceuticals, Budapest, Hungary) was serially diluted horizontally, starting with 8.6 µM. The resistance modifier was subsequently diluted vertically, with the starting concentration determined based on the IC50 value. Doxorubicin was diluted horizontally in 100 µL, while the resistance modifiers were diluted vertically in 50 µL in the microtiter plate. The compounds and doxorubicin were prepared as separate dilutions. The cells were seeded at a density of 6 × 10^3 cells per well into 100 µL of medium and incubated for 24 h at 37 °C in a 5% CO2 atmosphere prior to treatment. After this period, the culture medium was removed, and 50 µL of fresh medium was added to each well, followed by the addition of 50 µL of the diluted compounds, resulting in a final volume of 200 µL per well. The plates were then incubated for 72 h at 37 °C under 5% CO2. The cell viability was assessed at the end of incubation using the MTT assay, as described previously. Drug interactions were analyzed using CompuSyn software (Version 1.00).
The dose–response curves for individual agents and their combinations were fitted to a linear model based on the median-effect equation to calculate the median effective dose (IC50) and the slope (m). The quality of the fit was evaluated using the linear correlation coefficient (r), and only data with r > 0.90 are reported. The extent of drug interaction was quantified using the combination index (CI), where CI ≈ 1 indicated an additive effect, CI < 1 signified synergy, and CI > 1 denoted antagonism.

Row | SMILES | IC50 ([1]; COLO 320, 72 h) [µM] | IC50 ([2]; Homo sapiens, COLO 205, 72 h) [µM] | IC50 [3] [µM] | IC50 ([1]; 72 h) [µM] | IC50 ([2]; Homo sapiens, 72 h) [µM] | CI at ED50 (combination index) [4] | IC50 ([2]; 72 h) [µM] | Interaction [4]
1 | C=Cc1cc(O)c(CO)c2c1-c1ccc(O)c(C)c1CC2 [Compound 3, 2,7-dihydroxy-8-hydroxymethyl-1-methyl-5-vinyl-9,10-dihydrophenanthrene] | > 100 | > 100 | 96.8 ± 1.79 |  |  |  |  | 
2 | C=Cc1c(C)c(O)cc2ccc3c(C)c(O)ccc3c12 [Compound 7, dehydrojuncusol] |  |  | 42.04 ± 0.39 | 45.3 ± 2.78 | 28.16 ± 0.27 | 0.117 |  | 
3 | COc1cccc2c1C(=O)c1c(O)c3c(c(O)c1C2=O)C[C@@](O)(C(=O)CO)C[C@@H]3O[C@H]1C[C@H](N)[C@H](O)[C@H](C)O1 [doxorubicin] | 1.72 ± 0.5 | 0.53 ± 0.05 | 1.03 ± 0.18 |  |  |  |  | 
4 | C=Cc1c(CO)ccc2c1CCc1c-2ccc(O)c1C [Compound 18] | 31.5 ± 2.65 | 50.2 ± 0.74 | 70.8 ± 3.25 |  |  | 0.189 |  | 
5 | C=Cc1cc(O)cc2ccc3c(C)c(O)ccc3c12 [Compound 6, dehydroeffusol] |  |  | 58.17 ± 0.51 | 35.6 ± 3.89 | 36.7 ± 2.29 | 0.266 |  | 
6 | C=Cc1cc(O)cc2c1-c1cc(-c3c(O)cc4c(c3C=C)-c3ccc(O)c(C)c3CC4)c(O)c(C)c1CC2 [Compound 5, 1,1′-dimethyl-5,5′-divinyl-9,9′,10,10′-tetrahydro-[6,3′-biphenanthrene]-2,2′,7,7′-tetraol] | 12 ± 1.58 | 11.6 | 13.8 ± 0.82 |  |  | 0.433 | 11.6 ± 0.22 | synergism (0.3 < CI < 0.7, synergism)
7 | C=Cc1cc(O)cc2c1-c1cc(-c3cc4c(c(C)c3O)CCc3cc(O)cc(C(C)OC)c3-4)c(O)c(C)c1CC2 (stereo not shown) [Compound 4, tenuin D] | 15.7 ± 2.2 | 7.6 ± 0.13 | 9.93 ± 0.84 |  |  | 0.669 |  | synergism (0.3 < CI < 0.7, synergism)
8 | C=Cc1c(C)c(O)cc2c1-c1ccc(OC)c(C)c1CC2 [Compound 16, compressin A] | 19.2 ± 0.32 | 35.8 ± 2.7 | 28 ± 2.73 |  |  | 2.312 |  | antagonism (1.45 < CI < 3.3, antagonism)
9 | C=Cc1cc(O)c(C)c2c1-c1ccc(O)c(C)c1CC2 [Compound 17, 2,7-dihydroxy-1,8-dimethyl-5-vinyl-9,10-dihydrophenanthrene] | 35.1 ± 1.1 | 43.2 ± 3.82 | 64.7 ± 3.36 |  |  | 0.670 |  | synergism (0.3 < CI < 0.7, synergism)
10 | C=Cc1c(CO)ccc2c1ccc1c(C)c(O)ccc12 [Compound 9] | 42.6 ± 2.98 | > 100 | 75.3 ± 2.59 |  |  | 1.427 |  | moderate antagonism
11 | C=Cc1cc(O)cc2c1-c1ccc(OC)c(C)c1CC2 [Compound 12] | 25.5 ± 2.05 | 34.73 ± 0.1 | 28.7 ± 1.11 |  |  | 1.347 |  | moderate antagonism
